The conditions of this data set: Liquid; for mass density / viscosity: 298.15 K; for mass density: 101.33 kPa, Vibrating tube method.

Numbers after ± are expanded uncertainties.

Turning to `CCO` [ethanol], the mass density worked out at 785.46 ± 0.12 kg/m3. Moreover, the viscosity (Capillary tube (Ostwald / Ubbelohde) method) is 1.082 ± 0.073 mPa·s. Further, the “vapor or sublimation pressure” value (351.44 K, Ebulliometric method (Recirculating still)) was found to be 101.33 ± 0.1 kPa.
Take `CCOS(=O)(=O)[O-].CC[n+]1cccc(C)c1` [1-ethyl-3-methylpyridinium ethylsulfate]: the mass density is recorded as 1222.26 ± 0.42 kg/m3 and the viscosity is 161.4 ± 8.4 mPa·s.
